Patent publication US20020025312A1, “BIFUNCTIONAL WATER-SOLUBLE POLYMER DERIVATIVE AND COMPLEX CONTAINING IT” (priority 1997, published 2002)

Conditions: 2 mg/kg as adriamycin, tail vein, male BALB/c mouse
Method: To compare retention in blood of the respective liposomes, 2 mg/kg as the amount of adriamycin was administered from the tale vein to a male BALB/c mouse. After each period of time, the mouse was killed, and the plasma was collected. The amount of adriamycin was quantitatively analyzed by measuring fluorescence after extraction with hydrochloric acid/ethanol in accordance with a method of Konno et al. (Cancer Res. 47 4471 (1987)).
Accordingly, the amount of detected adriamycin is considered to reflect the behavior as the relevant liposome.

## COc1cccc2c1C(=O)c1c(O)c3c(c(O)c1C2=O)C[C@@](O)(C(=O)CO)C[C@@H]3O[C@H]1C[C@H](N)[C@H](O)[C@H](C)O1 [free adriamycin, adriamycin]
  retention in blood (concentration of adriamycin in blood plasma): disappeared from blood swiftly after the administration
